Patent US4946864A, “Novel HMG-CoA reductase inhibitors” (Merck & Co., Inc., priority 1988, dated 1990)

Target: T1, HMG-CoA reductase (Rattus norvegicus, UniProt P51639)
T1 construct: from tissue
T1 sequence (P51639 1-887): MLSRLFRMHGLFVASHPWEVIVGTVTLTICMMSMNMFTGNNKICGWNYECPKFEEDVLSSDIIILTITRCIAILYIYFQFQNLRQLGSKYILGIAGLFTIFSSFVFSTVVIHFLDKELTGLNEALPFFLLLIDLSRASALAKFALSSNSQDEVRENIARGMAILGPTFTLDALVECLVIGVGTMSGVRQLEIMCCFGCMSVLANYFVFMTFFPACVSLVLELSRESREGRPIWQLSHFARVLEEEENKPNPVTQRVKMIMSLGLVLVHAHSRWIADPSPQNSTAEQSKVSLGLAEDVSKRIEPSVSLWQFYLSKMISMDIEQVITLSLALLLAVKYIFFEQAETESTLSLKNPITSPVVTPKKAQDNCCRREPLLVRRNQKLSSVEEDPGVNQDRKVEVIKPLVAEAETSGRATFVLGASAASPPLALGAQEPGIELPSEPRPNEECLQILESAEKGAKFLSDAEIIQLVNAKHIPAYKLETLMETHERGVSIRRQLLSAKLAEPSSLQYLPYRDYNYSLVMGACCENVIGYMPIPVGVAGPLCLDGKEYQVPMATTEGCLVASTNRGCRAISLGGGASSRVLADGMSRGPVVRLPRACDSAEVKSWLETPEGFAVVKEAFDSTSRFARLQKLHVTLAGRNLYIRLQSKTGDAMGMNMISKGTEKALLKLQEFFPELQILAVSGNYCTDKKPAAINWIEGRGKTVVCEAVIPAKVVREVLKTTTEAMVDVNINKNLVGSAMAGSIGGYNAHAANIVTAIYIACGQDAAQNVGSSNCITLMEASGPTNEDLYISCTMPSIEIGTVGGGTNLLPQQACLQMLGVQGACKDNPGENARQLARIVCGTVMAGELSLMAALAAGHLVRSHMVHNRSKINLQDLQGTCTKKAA
Experiment: intrinsic HMG-CoA reductase inhibition, in vitro protocol of J. Med. Chem., 28, p. 347-358 (1985)
Type: biochemical
Details: mevastatin assigned a value of 100; IC50 of test compound compared with that of mevastatin determined simultaneously
Method: The intrinsic HMG-CoA reductase inhibition activity of the claimed compounds is measured in the in vitro protocol published in J. Med. Chem., 28, p. 347-358 (1985). […] Tabulated below for a number of the claimed compounds are relative potencies which are representative of the intrinsic HMG-CoA reductase inhibitory activities of the claimed compounds.

| Compound | Relative Potency |
| --- | --- |
| Cc1ccc(C)c(C(=O)O[C@H]2C[C@@H](C)C=C3C=C[C@H](C)[C@H](CC[C@@H]4C[C@@H](O)CC(=O)O4)[C@H]32)c1 | 67 |
| 6(R)-[2-[8(S)-(2-isopropylbenzoyloxy)-2(S),6(R) -dimethyl-1,2,6,7,8,8a(R)-hexahydronaphthyl-1(S)]ethyl-4(R)-hydroxy-3,4,5,6-tetrahydro-2H-pyran-2-one | 173 |
| 6(R)-[2-[8(S)-(2-methylbenzoyloxy) -2(S),6(R) -dimethyl-1,2,6,7,8,8a(R) -hexahydronaphthyl-1(S)]ethyl]-4(R)-hydroxy -3,4,5,6-tetrahydro-2H-pyran-2-one | 67 |
| 6(R)-[2-[8(S)-(2-methylthiobenzoyloxy)-2(S),6(R)-dimethyl-1,2,6,7,8,8a(R)- hexahydronaphthyl-1(S)]ethyl-4(R)-hydroxy-3,4,5,6-tetrahydro-2H-pyran-2-one | 54 |
| 6(R)-[2-[8(S)-(2-trifluormethyl-benzoyloxy)-2(S),6(R)-dimethyl-1,2,6,7,8,8a(R)-hexa-hydronaphthyl-1(S)]ethyl]-4(R)-hydroxy-3,4,5,6-tetrahydro-2H-pyran-2-one | 87 |
| 6(R)-[2-[(8(S)-(2-chlorobenzoyloxy)-2-(S),6(R)-dimethyl-1,2,6,7,8,8a(R)-hexahydronaphthyl-1-(S)]ethyl]-4(R)-hydroxy-3,4,5,6-tetahydro-2H pyran-2-one | 100 |
